Measured values taken from US9783518B2, “Therapeutic agent and treatment method for ameliorating uremia” (Toray Industries, Inc., priority 2005, dated 2017).

Experiments:
HUS [1] = conditions: in vivo; cited from earlier work
[2] = tested on: renal function impairment induced by uninephrectomy, high sodium loading and protein loading; conditions: cited from earlier work
[3] = tested on: streptozotocin-induced diabetic nephropathy rats; conditions: cited from earlier work
[4] = tested on: cats with chronic renal failure; assay: Blood biochemical analysis and urinalysis (BUN, serum Cre, glucose) in cats with chronic renal failure; format: in vivo, cat; conditions: Case-F, male cat 11 y, diabetic nephropathy; protamine zinc insulin 2 units/BID, 2 months
Procedure: Testing methods for the patients showing uremia caused by chronic renal failure, employed in Example 4 or later, will now be described. The criteria and evaluation items for the cats and dogs with chronic renal failure are as follows: Diagnosis of uremia and chronic renal failure were performed totally taking clinical findings (including findings of uremia) and the results of the blood test, blood biochemical analysis and urinalysis into consideration. As the clinical findings of uremia, existence and degree of polydipsia and diuresis, dehydration, anorexia, weight loss, vomiting symptom and state of dehydration were observed. Existence of chronic renal failure was judged based on the serum Cre value as generally employed. As reference data for grasping the degree of progress of chronic renal failure, BUN value was also monitored.
In the blood test, RBC, WBC, PCV, Hg and PLT were measured. In the blood biochemical analysis, TP, Tcho, AST, ALT, ALP, Tbil, BUN, creatinine, calcium, inorganic phosphorus, glucose, sodium ion, potassium ion and chloride ion were measured. In the urinalysis, protein amount, pH, occult blood, bilirubin and glucose were measured. To eliminate the circadian rhythm and influence by meals on the values of blood biochemical markers, every blood collection was carried out in the morning before feeding (at fasting).
As a more specific criterion for chronic renal failure in cats and dogs in the present Examples, a serum Cre value of 1.4 mg/dL in the blood test was employed. Serum Cre value was measured by creatinine deaminase-amidohydrolase method, and the BUN value as reference data for grasping the degree of progress of chronic renal failure was measured by urease-GLDH method.
Administration of beraprost sodium was conducted by orally administering the tablet with a content of 150 μg/tablet (Example 1) twice a day (300 μg/head/day). The administration was conducted every day and continued basically for 6 months, and in cases where the owner desired, the administration was continued even after the test period. The Examples of the present invention include both cases where the dosing period was less than 6 months and more than 6 months.

[5] = tested on: Thy-1-induced nephritis models; conditions: prophylactic administration before induction of nephritis; cited from earlier work
HUS [6] = conditions: one case of HUS; cited from earlier work

For CCCCC[C@H](O)/C=C/[C@@H]1[C@H]2C/C(=C/CCCC(=O)O)O[C@H]2C[C@H]1O [PGI2, prostaglandin I2], the “progress of HUS” value (HUS [1]) is given as “does not have an activity to inhibit the progress of HUS”.

For CCC#CC[C@H](C)[C@H](O)C#C[C@@H]1[C@H]2C/C(=C/COCC(=O)O)C[C@H]2C[C@H]1O [cicaprost], the renal function impairment [2] is listed as “activity to reduce the renal function impairment” and the renal function impairment [3] is listed as “activity to reduce the renal function impairment”.

“insulin: protamine zinc insulin for treating diabetes” gave a fasting blood glucose [4] of 100 mg/dL.

In the case of CC#CCC(C)[C@H](O)/C=C/[C@@H]1[C@H]2C/C(=C/CCCC(=O)O)C[C@H]2C[C@H]1O (stereo partly drawn) [iloprost], the urinary protein [5] is listed as “decreased” and the “improvement of the serum Cre value” (HUS [6]) is listed as “effective”.
